The record followed here is patent US8017602B2, “N-(2-(2-(5-hydroxy-3-oxo-3,4-dihydro-2H-benzo[b][1,4]oxazin-8-yl)ethylamino)ethyl)-3-(phenethoxy)propanamide derivatives, processes for their preparation, pharmaceutical compositions containing them and their use in therapy” (AstraZeneca AB, priority 2008, dated 2011).

Where a name gives a salt, the structure may show the parent alone.

For test [1], the target named is T1, Adrenergic β2 (Homo sapiens, UniProt P07550).
T1 construct: Adherent H292 cells were removed from tissue culture flasks; endogenous in cells; host or cells: H292 cells
T1 sequence (P07550 whole entry): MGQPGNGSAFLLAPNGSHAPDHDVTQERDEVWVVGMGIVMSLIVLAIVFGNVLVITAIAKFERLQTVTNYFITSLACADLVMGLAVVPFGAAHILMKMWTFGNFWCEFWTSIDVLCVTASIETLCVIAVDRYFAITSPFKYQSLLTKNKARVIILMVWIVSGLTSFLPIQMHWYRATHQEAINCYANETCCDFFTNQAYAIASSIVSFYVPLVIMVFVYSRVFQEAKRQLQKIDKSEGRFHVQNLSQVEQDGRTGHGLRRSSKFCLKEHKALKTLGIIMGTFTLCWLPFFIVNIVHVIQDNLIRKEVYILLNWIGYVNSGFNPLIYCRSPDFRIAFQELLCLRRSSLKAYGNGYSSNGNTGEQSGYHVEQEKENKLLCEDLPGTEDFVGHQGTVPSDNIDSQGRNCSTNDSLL
The test is described as follows: Adrenergic β2 mediated cAMP production in H292 cells (AlphaScreen cAMP detection). Type of test: cell-based. To be noted: for β2 Int Act: Intrinsic Activity, fraction relative to the maximum activity determined for formoterol; for EC50: cAMP production, 60 min at room temperature, 300 μM rolipram, read-out: β2 pEC50 (converted). As to the method:
H292 cells were grown in 225 cm2 flasks incubator at 37° C., 5% CO2 in RPMI medium containing, 10% (v/v) FBS (foetal bovine serum) and 2 mM L-glutamine.
Adherent H292 cells were removed from tissue culture flasks by treatment with Accutase™ cell detachment solution for 15 min. Flasks were incubated for 15 min in a humidified incubator at 37° C., 5% CO2. Detached cells were re-suspended in RPMI media (containing 10% (v/v) FBS and 2 mM L-glutamine) at […]. 10000 cells in 100 μl were added to each well of a tissue-culture-treated 96-well plate and the cells incubated overnight in a humidified incubator at 37° C., 5% CO2. The culture media was removed and cells were washed twice with 100 μl assay buffer and replaced with 50 μL assay buffer (HBSS solution containing 10 mM HEPES pH7.4 and 5 mM glucose). Cells were rested at room temperature for 20 min after which time 25 μl of rolipram (1.2 mM made up in assay buffer containing 2.4% (v/v) dimethylsulphoxide) was added. Cells were incubated with rolipram for 10 min after which time test compounds were added and the cells were incubated for 60 min at room temperature. The final rolipram concentration in the assay was 300 μM and final vehicle concentration was 1.6% (v/v) dimethylsulphoxide. The reaction was stopped by removing supernatants, washing once with 100 μL assay buffer and replacing with 50 μL lysis buffer. The cell monolayer was frozen at −80° C. for 30 min (or overnight).
AlphaScreen™ cAMP Detection
The concentration of cAMP (cyclic adenosine monophosphate) in the cell lysate was determined using AlphaScreen™ methodology. The frozen cell plate was thawed for 20 min on a plate shaker then 10 μl of the cell lysate was transferred to a 96-well white plate. 40 μL of mixed AlphaScreen™ detection beads pre-incubated with biotinylated cAMP, was added to each well and the plate incubated at room temperature for 10 h in the dark. The AlphaScreen™ signal was measured using an EnVision spectrophotometer (Perkin-Elmer Inc.) with the recommended manufacturer's settings. cAMP concentrations were determined by reference to a calibration curve determined in the same experiment using standard cAMP concentrations. Concentration response curves for agonists were constructed and data was fitted to a four parameter logistic equation to determine both the pEC50 and Intrinsic Activity. Intrinsic Activity was expressed as a fraction relative to the maximum activity determined for formoterol in each experiment.
Background: cAMP levels reflect the balance of adenylyl cyclase and phosphodiesterase activity.

In test [2] the target is T2, recombinant human α1D receptor (Homo sapiens, UniProt P25100).
T2 construct: expressed in transfected cells; host or cells: HEK293
T2 sequence (P25100 1-572): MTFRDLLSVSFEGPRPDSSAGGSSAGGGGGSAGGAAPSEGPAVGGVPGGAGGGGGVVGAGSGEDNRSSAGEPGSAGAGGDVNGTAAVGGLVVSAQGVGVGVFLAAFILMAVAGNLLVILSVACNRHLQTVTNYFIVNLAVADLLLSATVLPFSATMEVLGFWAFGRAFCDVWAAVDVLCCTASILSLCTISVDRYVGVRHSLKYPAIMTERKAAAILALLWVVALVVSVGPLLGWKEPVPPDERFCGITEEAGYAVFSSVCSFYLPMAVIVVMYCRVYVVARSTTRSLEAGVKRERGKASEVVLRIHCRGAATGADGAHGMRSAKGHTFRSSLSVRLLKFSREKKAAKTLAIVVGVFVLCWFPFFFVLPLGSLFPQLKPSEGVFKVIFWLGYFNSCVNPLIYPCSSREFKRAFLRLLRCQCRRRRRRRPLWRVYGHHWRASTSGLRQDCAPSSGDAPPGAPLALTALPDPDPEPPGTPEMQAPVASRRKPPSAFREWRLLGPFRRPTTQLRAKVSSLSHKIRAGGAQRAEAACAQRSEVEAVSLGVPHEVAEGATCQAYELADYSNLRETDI
Kind of test: Adrenergic α1D selectivity binding assay ([3H]-prazosin). To be noted: inhibition of [3H]-prazosin binding, HEK293 membranes, read-out: α1 bind pIC50 (converted). As to the method: Membranes were prepared from human embryonic kidney 293 (HEK293) cells expressing recombinant human α1D receptor. These were diluted in Assay Buffer (50 mM HEPES, 1 mM EDTA, pH 7.4) to provide a final concentration of membranes that gave a clear window between maximum and minimum specific binding.
Assays were performed in U-bottomed 96-well polypropylene plates. 10 μl [^3H]-prazosin (0.3 nM final concentration) and 10 μl of test compound (10× final concentration) were added to each test well. For each assay plate 8 replicates were obtained for [^3H]-prazosin binding in the presence of 10 μl vehicle (10% (v/v) DMSO in Assay Buffer; defining maximum binding) or 10 μL BMY7378 (10 μM final concentration; defining non-specific binding (NSB)). Membranes were then added to achieve a final volume of 100 μL. The plates were incubated for 2 h at room temperature and then filtered onto PEI coated GF/B filter plates, pre-soaked for 1 h in Assay Buffer, using a 96-well plate Tomtec cell harvester. Five washes with 250 μl wash buffer (50 mM HEPES, 1 mM EDTA, pH 7.4) were performed at 4° C. to remove unbound radioactivity. The plates were dried then sealed from underneath using Packard plate sealers and MicroScint-O (50 μl) was added to each well. The plates were sealed (TopSeal A) and filter-bound radioactivity was measured with a scintillation counter (TopCount, Packard BioScience) using a 3-minute counting protocol.
Total specific binding (B0) was determined by subtracting the mean NSB from the mean maximum binding. NSB values were also subtracted from values from all other wells. […] Data was fitted to a four parameter logistic equation to determine the compound potency, which was expressed as pIC50 (negative log molar concentration inducing 50% inhibition of [^3H]-prazosin binding).

Consider `O=C1COc2c(CCNCCN(C(=O)CCOCCc3cccc(-c4cnco4)c3)C3CCCCC3)ccc(O)c2N1` [Example 10, N-Cyclohexyl-N-(2-(2-(5-hydroxy-3-oxo-3,4-dihydro-2H-benzo[b][1,4]oxazin-8-yl)ethylamino)ethyl)-3-(3-(oxazol-5-yl)phenethoxy)propanamide Trifluoroacetic Acid Salt], for which, in test [1], the “β2 Int Act” value turned out to be 0.88 and the EC50 was 10 nM. The IC50 in test [2] is 316 nM.
In the case of `CCn1ccnc1-c1cccc(CCOCCC(=O)N(CCNCCc2ccc(O)c3c2OCC(=O)N3)C2CCCCC2)c1` [Example 29, N-Cyclohexyl-3-(3-(1-ethyl-1H-imidazol-2-yl)phenethoxy)-N-(2-(2-(5-hydroxy-3-oxo-3,4-dihydro-2H-benzo[b][1,4]oxazin-8-yl)ethylamino)ethyl)propanamide Trifluoroacetic Acid Salt], in test [1], the “β2 Int Act” value was 0.90 and the EC50 is 50.1 nM. Also, in test [2], the IC50 was 1580 nM.
With `CCn1cc(-c2cccc(CCOCCC(=O)N(CCNCCc3ccc(O)c4c3OCC(=O)N4)C3CCCCC3)c2)nn1` [Example 04, N-Cyclohexyl-3-(3-(1-ethyl-1H-1,2,3-triazol-4-yl)phenethoxy)-N-(2-(2-(5-hydroxy-3-oxo-3,4-dihydro-2H-benzo[b][1,4]oxazin-8-yl)ethylamino)ethyl)propanamide Trifluoroacetic Acid Salt], in test [1], the “β2 Int Act” value is 0.96 and the EC50 was 12.6 nM. Moreover, in test [2], the IC50 is 2000 nM.
Regarding `Cc1nc(-c2cccc(CCOCCC(=O)N(CCNCCc3ccc(O)c4c3OCC(=O)N4)C3CCCCC3)c2)no1` [Example 27, N-Cyclohexyl-N-(2-(2-(5-hydroxy-3-oxo-3,4-dihydro-2H-benzo[b][1,4]oxazin-8-yl)ethylamino)ethyl)-3-(3-(5-methyl-1,2,4-oxadiazol-3-yl)phenethoxy)propanamide Trifluoroacetic Acid Salt], in test [1], the “β2 Int Act” value stood at 0.91 and the EC50 is 15.8 nM. Also, in test [2], the IC50 is 1000 nM.
With `Cn1cc(-c2cc(CCOCCC(=O)N(CCNCCc3ccc(O)c4c3OCC(=O)N4)C3CCCCC3)ccc2F)cn1` [Example 13, N-Cyclohexyl-3-(4-fluoro-3-(1-methyl-1H-pyrazol-4-yl)phenethoxy)-N-(2-(2-(5-hydroxy-3-oxo-3,4-dihydro-2H-benzo[b][1,4]oxazin-8-yl)ethylamino)ethyl)propanamide Trifluoroacetic Acid Salt], in test [1], the “β2 Int Act” value is on record as 0.85 and the EC50 was 10 nM. Also, the IC50 in test [2] is 631 nM.
As for `Cn1cc(-c2cccc(CCOCCC(=O)N(CCNCCc3ccc(O)c4c3OCC(=O)N4)C3CCCCC3)c2F)cn1` [Example 16, N-Cyclohexyl-3-(2-fluoro-3-(1-methyl-1H-pyrazol-4-yl)phenethoxy)-N-(2-(2-(5-hydroxy-3-oxo-3,4-dihydro-2H-benzo[b][1,4]oxazin-8-yl)ethylamino)ethyl)propanamide Trifluoroacetic Acid Salt], in test [1], the “β2 Int Act” value is given as 1.00 and the EC50 was 12.6 nM. Besides, the IC50 in test [2] was 501 nM.
`O=C1COc2c(CCNCCN(C(=O)CCOCCc3cccc(-c4nn[nH]n4)c3)C3CCCCC3)ccc(O)c2N1` [Example 15, 3-(3-(2H-Tetrazol-5-yl)phenethoxy)-N-cyclohexyl-N-(2-(2-(5-hydroxy-3-oxo-3,4-dihydro-2H-benzo[b][1,4]oxazin-8-yl)ethylamino)ethyl)propanamide Trifluoroacetic Acid Salt]: in test [1], the “β2 Int Act” value is 0.83 and the EC50 is 12.6 nM. The IC50 in test [2] is > 10000 nM.
On to `Cc1nc(-c2cccc(CCOCCC(=O)N(CCNCCc3ccc(O)c4c3OCC(=O)N4)C3CCCCC3)c2)[nH]c1C` [Example 32, N-Cyclohexyl-3-(3-(4,5-dimethyl-1H-imidazol-2-yl)phenethoxy)-N-(2-(2-(5-hydroxy-3-oxo-3,4-dihydro-2H-benzo[b][1,4]oxazin-8-yl)ethylamino)ethyl)propanamide], for which, in test [1], the “β2 Int Act” value is recorded as 1.00 and the EC50 was 7.94 nM. Also, the IC50 in test [2] was 631 nM.
Consider `CC(C)n1cc(-c2cccc(CCOCCC(=O)N(CCNCCc3ccc(O)c4c3OCC(=O)N4)C3CCCCC3)c2)nn1` [Example 12, N-Cyclohexyl-N-(2-(2-(5-hydroxy-3-oxo-3,4-dihydro-2H-benzo[b][1,4]oxazin-8-yl)ethylamino)ethyl)-3-(3-(1-isopropyl-1H-1,2,3-triazol-4-yl)phenethoxy)propanamide Trifluoroacetic Acid Salt], for which, in test [1], the “β2 Int Act” value is 0.91 and the EC50 is 20 nM. Besides, the IC50 in test [2] was 1580 nM.
Taken in the same sequence, the figures for `Cn1nnc(-c2cccc(CCOCCC(=O)N(CCNCCc3ccc(O)c4c3OCC(=O)N4)C3CCCCC3)c2)n1` [Example 07, N-Cyclohexyl-N-(2-(2-(5-hydroxy-3-oxo-3,4-dihydro-2H-benzo[b][1,4]oxazin-8-yl)ethylamino)ethyl)-3-(3-(2-methyl-2H-tetrazol-5-yl)phenethoxy)propanamide Trifluoroacetic Acid Salt] were 0.92, 15.8 nM and 1000 nM.
Taken in the same sequence, the figures for `Cn1cc(-c2cccc(CCOCCC(=O)N(CCNCCc3ccc(O)c4c3OCC(=O)N4)C3CCCCCC3)c2)cn1` [Example 31, N-Cycloheptyl-N-(2-(2-(5-hydroxy-3-oxo-3,4-dihydro-2H-benzo[b][1,4]oxazin-8-yl)ethylamino)ethyl)-3-(3-(1-methyl-1H-pyrazol-4-yl)phenethoxy)propanamide Trifluoroacetic Acid Salt] were 0.93, 3.16 nM and 398 nM.
As for `O=C1COc2c(CCNCCN(C(=O)CCOCCc3cccc(-c4cnn(CC5CC5)c4)c3)C3CCCC3)ccc(O)c2N1` [Example 19, N-Cyclopentyl-3-(3-(1-(cyclopropylmethyl)-1H-pyrazol-4-yl)phenethoxy)-N-(2-(2-(5-hydroxy-3-oxo-3,4-dihydro-2H -benzo[b][1,4]oxazin-8-yl)ethylamino)ethyl)propanamide Trifluoroacetic Acid Salt], in test [1], the “β2 Int Act” value was 0.95 and the EC50 was 6.31 nM. In addition, in test [2], the IC50 was 1000 nM.
